Reference: ChEMBL document CHEMBL3784917, “Recent Progress in Histone Demethylase Inhibitors” (J Med Chem, 2016)

Experiments:
[1] = molecular target: T1, Lysine-specific demethylase 2B (Homo sapiens, UniProt Q8NHM5); test: biochemical
T1 sequence (Q8NHM5 whole entry): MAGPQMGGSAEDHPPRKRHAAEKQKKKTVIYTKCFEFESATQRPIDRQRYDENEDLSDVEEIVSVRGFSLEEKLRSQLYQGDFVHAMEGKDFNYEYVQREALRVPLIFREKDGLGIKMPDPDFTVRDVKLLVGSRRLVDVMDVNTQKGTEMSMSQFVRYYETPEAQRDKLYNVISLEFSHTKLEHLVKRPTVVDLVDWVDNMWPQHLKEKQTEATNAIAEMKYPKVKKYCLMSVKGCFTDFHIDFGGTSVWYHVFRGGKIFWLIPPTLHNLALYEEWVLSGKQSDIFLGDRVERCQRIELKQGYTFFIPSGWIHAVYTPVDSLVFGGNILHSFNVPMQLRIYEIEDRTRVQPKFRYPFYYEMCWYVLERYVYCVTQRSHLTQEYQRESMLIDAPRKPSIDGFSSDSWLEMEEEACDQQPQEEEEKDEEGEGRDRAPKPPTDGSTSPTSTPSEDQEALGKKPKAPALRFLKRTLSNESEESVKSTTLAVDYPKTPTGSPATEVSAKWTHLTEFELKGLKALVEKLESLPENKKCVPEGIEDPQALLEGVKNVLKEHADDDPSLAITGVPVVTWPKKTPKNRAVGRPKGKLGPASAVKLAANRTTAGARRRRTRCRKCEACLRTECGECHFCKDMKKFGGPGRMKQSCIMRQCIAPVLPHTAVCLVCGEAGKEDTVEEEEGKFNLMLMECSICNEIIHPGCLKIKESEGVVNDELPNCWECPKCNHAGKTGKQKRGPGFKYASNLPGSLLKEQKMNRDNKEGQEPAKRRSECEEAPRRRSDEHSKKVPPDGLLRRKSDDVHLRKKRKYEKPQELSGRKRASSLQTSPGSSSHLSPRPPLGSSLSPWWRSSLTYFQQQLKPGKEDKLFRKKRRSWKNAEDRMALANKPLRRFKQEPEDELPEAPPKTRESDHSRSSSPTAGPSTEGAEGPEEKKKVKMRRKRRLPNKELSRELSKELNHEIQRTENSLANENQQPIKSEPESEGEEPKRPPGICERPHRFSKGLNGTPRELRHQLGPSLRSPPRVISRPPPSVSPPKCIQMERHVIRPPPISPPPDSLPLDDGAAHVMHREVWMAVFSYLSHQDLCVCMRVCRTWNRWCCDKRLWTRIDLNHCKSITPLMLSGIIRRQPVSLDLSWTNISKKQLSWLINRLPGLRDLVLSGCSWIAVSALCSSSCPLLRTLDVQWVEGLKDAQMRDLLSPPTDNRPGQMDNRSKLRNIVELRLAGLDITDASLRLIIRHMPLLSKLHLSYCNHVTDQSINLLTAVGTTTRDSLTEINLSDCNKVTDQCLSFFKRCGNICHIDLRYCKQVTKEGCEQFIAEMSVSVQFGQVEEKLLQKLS

[2] = molecular target: Lysine-specific demethylase 5C (Homo sapiens, UniProt P41229); test: biochemical
Chain of Lysine-specific demethylase 5C (P41229 whole entry): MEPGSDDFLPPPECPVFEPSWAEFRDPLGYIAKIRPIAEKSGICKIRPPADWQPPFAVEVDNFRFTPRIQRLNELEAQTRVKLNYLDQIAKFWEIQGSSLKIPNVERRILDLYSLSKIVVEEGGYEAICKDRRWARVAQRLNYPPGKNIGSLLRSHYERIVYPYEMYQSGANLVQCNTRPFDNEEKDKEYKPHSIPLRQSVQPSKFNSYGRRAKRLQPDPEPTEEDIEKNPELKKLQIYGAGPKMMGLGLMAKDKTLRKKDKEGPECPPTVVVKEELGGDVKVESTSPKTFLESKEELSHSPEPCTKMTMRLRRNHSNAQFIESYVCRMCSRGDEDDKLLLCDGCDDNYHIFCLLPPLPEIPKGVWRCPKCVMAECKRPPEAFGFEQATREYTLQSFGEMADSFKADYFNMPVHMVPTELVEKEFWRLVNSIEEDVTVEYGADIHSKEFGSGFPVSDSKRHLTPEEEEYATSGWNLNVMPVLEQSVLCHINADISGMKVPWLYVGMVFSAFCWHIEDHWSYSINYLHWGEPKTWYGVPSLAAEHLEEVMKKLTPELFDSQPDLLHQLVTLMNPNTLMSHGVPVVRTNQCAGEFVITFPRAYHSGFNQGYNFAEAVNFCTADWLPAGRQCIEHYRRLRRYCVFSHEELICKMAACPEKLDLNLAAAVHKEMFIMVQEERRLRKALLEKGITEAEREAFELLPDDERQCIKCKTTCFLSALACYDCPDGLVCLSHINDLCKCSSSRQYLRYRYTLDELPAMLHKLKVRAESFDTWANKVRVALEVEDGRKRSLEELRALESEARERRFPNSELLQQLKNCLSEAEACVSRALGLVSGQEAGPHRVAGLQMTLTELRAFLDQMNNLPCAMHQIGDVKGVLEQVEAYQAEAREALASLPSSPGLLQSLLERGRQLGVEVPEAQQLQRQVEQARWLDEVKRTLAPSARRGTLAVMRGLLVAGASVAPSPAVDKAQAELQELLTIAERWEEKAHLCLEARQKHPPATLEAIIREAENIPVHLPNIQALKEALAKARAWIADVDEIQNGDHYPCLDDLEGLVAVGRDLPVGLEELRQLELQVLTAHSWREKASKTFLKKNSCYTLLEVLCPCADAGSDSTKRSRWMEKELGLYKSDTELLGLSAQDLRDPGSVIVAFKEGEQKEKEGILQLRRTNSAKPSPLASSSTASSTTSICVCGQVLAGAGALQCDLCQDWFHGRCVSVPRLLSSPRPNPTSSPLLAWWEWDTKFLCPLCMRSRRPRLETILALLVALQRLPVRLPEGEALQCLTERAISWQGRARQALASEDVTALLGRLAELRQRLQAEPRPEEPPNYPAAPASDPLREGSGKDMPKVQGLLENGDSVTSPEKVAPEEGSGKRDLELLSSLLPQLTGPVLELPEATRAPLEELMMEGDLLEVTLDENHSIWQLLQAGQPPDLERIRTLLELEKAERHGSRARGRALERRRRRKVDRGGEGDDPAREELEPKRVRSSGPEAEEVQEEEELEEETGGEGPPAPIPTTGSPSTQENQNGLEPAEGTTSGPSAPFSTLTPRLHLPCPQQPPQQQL

[3] = molecular target: Lysine-specific demethylase 6A (Homo sapiens, UniProt O15550)
Chain of Lysine-specific demethylase 6A (O15550 whole entry): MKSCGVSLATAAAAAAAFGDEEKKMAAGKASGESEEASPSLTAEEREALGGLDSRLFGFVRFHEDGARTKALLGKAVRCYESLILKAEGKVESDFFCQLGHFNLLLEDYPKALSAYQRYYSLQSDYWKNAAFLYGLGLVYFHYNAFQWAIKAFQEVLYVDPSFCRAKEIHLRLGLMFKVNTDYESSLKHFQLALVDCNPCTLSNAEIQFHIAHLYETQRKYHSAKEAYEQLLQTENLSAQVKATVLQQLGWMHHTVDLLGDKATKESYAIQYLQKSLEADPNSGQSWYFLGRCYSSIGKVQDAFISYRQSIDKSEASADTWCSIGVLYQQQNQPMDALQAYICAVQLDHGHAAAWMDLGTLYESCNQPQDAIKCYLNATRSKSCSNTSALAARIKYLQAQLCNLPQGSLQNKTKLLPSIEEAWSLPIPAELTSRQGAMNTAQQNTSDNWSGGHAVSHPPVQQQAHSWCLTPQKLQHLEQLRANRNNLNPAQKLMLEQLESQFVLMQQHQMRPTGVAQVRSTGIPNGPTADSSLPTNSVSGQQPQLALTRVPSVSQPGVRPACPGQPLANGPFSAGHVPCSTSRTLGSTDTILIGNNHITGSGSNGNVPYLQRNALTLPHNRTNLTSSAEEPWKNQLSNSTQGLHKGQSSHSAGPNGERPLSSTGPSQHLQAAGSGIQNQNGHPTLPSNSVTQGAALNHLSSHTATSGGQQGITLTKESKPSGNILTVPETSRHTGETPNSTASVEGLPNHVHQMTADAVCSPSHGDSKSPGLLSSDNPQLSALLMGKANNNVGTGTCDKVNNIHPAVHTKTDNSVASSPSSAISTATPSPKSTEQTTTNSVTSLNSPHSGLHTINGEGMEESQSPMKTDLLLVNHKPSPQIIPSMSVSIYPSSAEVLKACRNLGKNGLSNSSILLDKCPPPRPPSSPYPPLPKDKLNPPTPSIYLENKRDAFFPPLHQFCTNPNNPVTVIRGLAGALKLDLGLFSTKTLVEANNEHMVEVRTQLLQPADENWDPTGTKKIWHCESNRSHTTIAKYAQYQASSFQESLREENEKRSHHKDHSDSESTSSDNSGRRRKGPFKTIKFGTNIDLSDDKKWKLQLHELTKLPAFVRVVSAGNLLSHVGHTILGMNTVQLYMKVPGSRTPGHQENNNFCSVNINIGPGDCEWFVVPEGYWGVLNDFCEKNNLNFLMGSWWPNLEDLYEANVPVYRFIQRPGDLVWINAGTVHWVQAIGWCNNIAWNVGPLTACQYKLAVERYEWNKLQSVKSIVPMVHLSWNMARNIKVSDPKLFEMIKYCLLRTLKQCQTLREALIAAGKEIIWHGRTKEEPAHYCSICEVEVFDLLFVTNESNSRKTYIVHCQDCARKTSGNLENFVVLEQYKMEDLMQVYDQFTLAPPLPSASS

[4] = molecular target: T2, Lysine-specific demethylase 4C (Homo sapiens, UniProt Q9H3R0)
T2 sequence (Q9H3R0 whole entry): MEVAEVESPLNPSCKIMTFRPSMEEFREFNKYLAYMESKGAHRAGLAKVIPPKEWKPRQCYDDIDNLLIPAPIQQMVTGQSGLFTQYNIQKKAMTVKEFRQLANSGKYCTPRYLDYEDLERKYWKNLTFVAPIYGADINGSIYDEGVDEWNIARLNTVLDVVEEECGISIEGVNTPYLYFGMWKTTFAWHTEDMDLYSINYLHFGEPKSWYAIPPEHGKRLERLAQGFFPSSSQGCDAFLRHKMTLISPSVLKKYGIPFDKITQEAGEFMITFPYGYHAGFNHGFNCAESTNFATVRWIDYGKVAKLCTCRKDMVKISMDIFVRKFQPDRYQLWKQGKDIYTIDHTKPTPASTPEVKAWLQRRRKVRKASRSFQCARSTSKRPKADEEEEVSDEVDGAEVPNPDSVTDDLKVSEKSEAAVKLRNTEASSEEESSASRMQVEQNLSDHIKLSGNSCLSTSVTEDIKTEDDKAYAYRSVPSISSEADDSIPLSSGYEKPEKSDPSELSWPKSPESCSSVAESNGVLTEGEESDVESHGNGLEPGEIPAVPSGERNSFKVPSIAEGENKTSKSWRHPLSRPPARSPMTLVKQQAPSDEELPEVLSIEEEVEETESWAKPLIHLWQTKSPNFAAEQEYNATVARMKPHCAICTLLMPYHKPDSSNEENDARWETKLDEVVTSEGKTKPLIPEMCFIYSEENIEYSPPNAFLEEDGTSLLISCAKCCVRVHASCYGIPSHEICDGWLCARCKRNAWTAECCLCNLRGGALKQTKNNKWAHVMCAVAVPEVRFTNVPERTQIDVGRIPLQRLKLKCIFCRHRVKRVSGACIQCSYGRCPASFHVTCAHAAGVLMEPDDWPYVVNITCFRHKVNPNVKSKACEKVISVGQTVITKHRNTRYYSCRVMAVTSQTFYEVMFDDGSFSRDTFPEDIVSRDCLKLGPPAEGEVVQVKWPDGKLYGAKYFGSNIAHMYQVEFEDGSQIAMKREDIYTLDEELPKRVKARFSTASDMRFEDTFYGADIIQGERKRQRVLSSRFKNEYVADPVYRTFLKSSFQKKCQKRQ

IC50 [1] [nM]	IC50 [2] [nM]	IC50 [3] [nM]	IC50 [4] [nM]	Structure (SMILES)
> 2500	250	> 2500	> 2500	CCN(CCN(C)C)C(=O)CNCc1cc(CNC(=O)C(F)(F)F)ccn1
> 2500	< 250	> 2500	> 2500	CCN(CC)CCCCNCc1cc(C=O)ccn1
100	< 100	> 1000	< 100	CCN(CCN(C)C)C(=O)CNCc1cc(C(=O)O)ccn1
